Source: US10479795B2 (Incyte Corporation, priority 2016, dated 2019)
Structures can show the parent of a compound that is named as a salt. Where two headings read alike, the source gives them in different places.

Tests used:
[1] = tested on: Phosphorylated Ribosomal Protein S6 (RPS6); assay: THP-1 RPS6 ELISA Assay; format: cell-based, Human; conditions: THP-1 cells, read-out: PI3Kγ_THP1_RPS6_ELISA IC50
Outline: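 IC50 values come from a curve of percent inhibition against log compound concentration, using phospho-RPS6 ELISA (450 nm) on THP-1 lysates. Cells were serum-starved overnight, exposed to compound for 2 h at 37 °C, then challenged 15 min with 10 nM MCP-1.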

[2] = biological target: PI3Kγ (p110γ) Recombinant Human Protein (Homo sapiens (Human), UniProt P48736); assay: PI3K-γ Scintillation Proximity Assay; format: biochemical; conditions: read-out: PI3Kγ IC50
Chain of PI3Kγ (p110γ) Recombinant Human Protein (P48736 whole entry): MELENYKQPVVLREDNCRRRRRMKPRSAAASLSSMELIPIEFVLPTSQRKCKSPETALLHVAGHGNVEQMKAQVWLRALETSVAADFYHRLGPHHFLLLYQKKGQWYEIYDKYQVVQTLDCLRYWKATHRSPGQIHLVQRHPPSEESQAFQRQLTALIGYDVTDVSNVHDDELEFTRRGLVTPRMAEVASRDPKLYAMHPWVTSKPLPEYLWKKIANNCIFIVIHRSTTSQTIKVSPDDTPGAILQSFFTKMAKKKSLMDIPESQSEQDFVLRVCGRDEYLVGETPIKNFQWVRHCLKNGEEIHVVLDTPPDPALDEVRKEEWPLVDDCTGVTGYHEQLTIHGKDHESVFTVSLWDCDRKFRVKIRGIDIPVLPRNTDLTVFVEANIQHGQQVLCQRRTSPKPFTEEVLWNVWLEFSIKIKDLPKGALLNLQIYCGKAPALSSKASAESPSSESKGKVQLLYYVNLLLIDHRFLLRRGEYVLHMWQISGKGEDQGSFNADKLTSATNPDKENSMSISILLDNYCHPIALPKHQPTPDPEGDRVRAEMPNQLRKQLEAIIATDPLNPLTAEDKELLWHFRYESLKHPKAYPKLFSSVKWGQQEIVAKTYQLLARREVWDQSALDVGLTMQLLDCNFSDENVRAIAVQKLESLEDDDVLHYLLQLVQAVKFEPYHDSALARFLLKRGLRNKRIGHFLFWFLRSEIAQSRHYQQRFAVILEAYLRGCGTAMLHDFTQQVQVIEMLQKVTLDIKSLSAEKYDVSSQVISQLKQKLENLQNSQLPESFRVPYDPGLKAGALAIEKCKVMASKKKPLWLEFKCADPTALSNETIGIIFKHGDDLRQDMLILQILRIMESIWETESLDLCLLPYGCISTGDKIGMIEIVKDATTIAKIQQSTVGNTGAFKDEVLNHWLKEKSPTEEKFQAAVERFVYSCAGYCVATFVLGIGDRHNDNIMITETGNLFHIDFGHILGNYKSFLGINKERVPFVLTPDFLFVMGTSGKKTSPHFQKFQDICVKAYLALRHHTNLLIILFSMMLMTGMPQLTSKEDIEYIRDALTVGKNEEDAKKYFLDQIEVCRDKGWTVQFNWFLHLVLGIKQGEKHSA
Outline: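 Radiometric SPA readout: […] bound to WGA beads after overnight shaking, IC50 derived from % activity of DMSO control. Reaction used human p110γ, 2 μM ATP, 20 μM PIP2, pH 6.7 MOPS buffer with MgCl2, DTT, CHAPS, 2% DMSO, room temperature.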

[3] = biological target: PI3Kδ (p110δ/p85α) Recombinant Human Protein (Homo sapiens (Human), UniProt O00329); assay: PI3Kδ Scintillation Proximity Assay; format: biochemical
Chain of PI3Kδ (p110δ/p85α) Recombinant Human Protein (O00329 whole entry): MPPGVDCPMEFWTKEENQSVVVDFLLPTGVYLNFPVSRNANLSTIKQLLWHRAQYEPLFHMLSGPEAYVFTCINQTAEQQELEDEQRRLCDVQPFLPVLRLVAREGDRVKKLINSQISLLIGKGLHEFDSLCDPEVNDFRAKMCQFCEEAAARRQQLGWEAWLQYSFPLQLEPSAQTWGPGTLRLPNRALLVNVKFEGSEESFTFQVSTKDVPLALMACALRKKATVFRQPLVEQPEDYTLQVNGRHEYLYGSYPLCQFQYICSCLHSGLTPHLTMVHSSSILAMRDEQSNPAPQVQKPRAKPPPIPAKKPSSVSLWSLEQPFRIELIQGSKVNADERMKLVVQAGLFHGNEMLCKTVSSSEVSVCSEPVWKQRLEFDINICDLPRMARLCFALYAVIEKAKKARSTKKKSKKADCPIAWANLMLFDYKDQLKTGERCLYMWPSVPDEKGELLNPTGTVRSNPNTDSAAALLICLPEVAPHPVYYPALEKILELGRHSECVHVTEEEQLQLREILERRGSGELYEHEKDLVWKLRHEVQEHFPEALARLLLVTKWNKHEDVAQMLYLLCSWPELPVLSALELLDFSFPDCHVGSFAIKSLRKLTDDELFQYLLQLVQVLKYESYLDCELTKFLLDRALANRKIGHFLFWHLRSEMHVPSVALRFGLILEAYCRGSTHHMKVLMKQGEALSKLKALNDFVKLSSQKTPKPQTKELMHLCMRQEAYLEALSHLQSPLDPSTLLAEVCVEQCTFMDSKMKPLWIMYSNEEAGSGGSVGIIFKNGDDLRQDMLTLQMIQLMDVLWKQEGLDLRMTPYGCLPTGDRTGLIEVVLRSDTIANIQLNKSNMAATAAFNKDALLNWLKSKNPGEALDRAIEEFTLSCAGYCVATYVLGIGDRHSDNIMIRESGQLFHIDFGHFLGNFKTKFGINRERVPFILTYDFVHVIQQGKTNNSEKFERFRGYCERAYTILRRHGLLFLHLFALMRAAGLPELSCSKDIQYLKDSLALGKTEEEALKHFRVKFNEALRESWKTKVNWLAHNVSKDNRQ
Chain of PI3Kδ (p110δ/p85α) Recombinant Human Protein (P27986 whole entry partner): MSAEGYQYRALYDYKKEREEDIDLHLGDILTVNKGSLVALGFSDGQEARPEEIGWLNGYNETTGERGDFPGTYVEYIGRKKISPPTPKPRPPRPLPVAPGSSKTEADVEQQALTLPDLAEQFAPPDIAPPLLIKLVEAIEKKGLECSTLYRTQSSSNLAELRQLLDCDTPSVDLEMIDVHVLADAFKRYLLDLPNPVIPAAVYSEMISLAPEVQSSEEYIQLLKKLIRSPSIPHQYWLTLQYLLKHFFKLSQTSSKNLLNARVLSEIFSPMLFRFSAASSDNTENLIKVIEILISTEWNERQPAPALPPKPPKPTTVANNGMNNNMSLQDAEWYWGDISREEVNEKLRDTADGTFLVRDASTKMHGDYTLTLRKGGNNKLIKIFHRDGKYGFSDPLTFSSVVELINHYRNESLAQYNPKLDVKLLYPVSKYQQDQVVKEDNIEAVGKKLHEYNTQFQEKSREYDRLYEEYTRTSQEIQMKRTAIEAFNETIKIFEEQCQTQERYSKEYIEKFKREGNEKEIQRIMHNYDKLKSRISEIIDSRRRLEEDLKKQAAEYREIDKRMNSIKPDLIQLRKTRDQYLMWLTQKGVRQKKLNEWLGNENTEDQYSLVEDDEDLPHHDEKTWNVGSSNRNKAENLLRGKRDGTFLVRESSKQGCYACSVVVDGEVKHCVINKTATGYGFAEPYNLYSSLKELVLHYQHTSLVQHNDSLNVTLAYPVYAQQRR
Outline: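 Assay conditions: 2 μM ATP (radiolabelled), 20 μM PIP2, 3.4 nM PI3Kδ, 20 mM MOPS pH 6.7 with 10 mM MgCl2, 5 mM DTT, 0.03% CHAPS, 2 h at room temperature. Signal from bead-captured 33P product; IC50 versus solvent control.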

Compound	IC50 ([1]; Homo sapiens) [nM]	IC50 [2] [nM]	IC50 [3] [nM]	IC50 [1] [nM]
Cl.[2H]C([2H])([2H])c1ccc(S(=O)(=O)NC23CCC(C#N)(C2)C3)cc1-c1cnc2c(N)ncnn12 [Example 254, 3-(4-Aminoimidazo[2,1-f][1,2,4]triazin-7-yl)-N-(4-cyanobicyclo[2.1.1]hexan-1-yl)-4-(methyl-d3)benzenesulfonamide crystalline hydrochloric acid salt]	< 100	< 100	100 to 500	–
O=S(=O)(O)c1ccccc1.[2H]C([2H])([2H])c1ccc(S(=O)(=O)NC23CCC(C#N)(C2)C3)cc1-c1cnc2c(N)ncnn12 [Example 255, 3-(4-Aminoimidazo[2,1-f][1,2,4]triazin-7-yl)-N-(4-cyanobicyclo[2.1.1]hexan-1-yl)-4-(methyl-d3)benzenesulfonamide crystalline benzenesulfonic acid salt]	< 100	< 100	100 to 500	–
Cc1ncc(S(=O)(=O)NC23CCC(C#N)(C2)C3)cc1-c1cnc2c(N)ncnn12 [Example 256, 5-(4-Aminoimidazo[2,1-f][1,2,4]triazin-7-yl)-N-(4-cyanobicyclo[2.1.1]hexan-1-yl)-6-methylpyridine-3-sulfonamide trifluoroacetate salt]	100 to 500	< 100	100 to 500	–
Cc1ncc(S(=O)(=O)NC23CCC(C#N)(C2)C3)cc1-c1cnc2c(N)nc(C(F)(F)F)cn12 [Example 257, 5-(8-amino-6-(trifluoromethyl)imidazo[1,2-a]pyrazin-3-yl)-N-(4-cyanobicyclo[2.1.1]hexan-1-yl)-6-methylpyridine-3-sulfonamide]	> 1000	< 100	500 to 2000	–
Cc1nc2c(N)ncnn2c1-c1cccc(S(=O)(=O)NC23CCC(C#N)(C2)C3)c1 [Example 258, 3-(4-Amino-6-methylimidazo[2,1-f][1,2,4]triazin-7-yl)-N-(4-cyanobicyclo[2.1.1]hexan-1-yl)benzenesulfonamide trifluoroacetate salt]	500 to 1000	< 100	100 to 500	–
Cc1ccc(S(=O)(=O)NC23CCC(CO)(C2)C3)cc1-c1cnc2c(N)nc(C3CC3)nn12 [Example 259, 3-(4-Amino-2-cyclopropylimidazo[2,1-f][1,2,4]triazin-7-yl)-N-(4-(hydroxymethyl)bicyclo[2.1.1]hexan-1-yl)-4-methylbenzenesulfonamide trifluoroacetate salt]	< 100	< 100	100 to 500	–
[2H]C([2H])([2H])c1ccc(S(=O)(=O)N(C)C23CCC(C#N)(C2)C3)cc1-c1cnc2c(N)ncnn12 [Example 261, 3-(4-Aminoimidazo[2,1-f][1,2,4]triazin-7-yl)-N-(4-cyanobicyclo[2.1.1]hexan-1-yl)-N-methyl-4-(methyl-d3)benzenesulfonamide]	< 100	< 100	500 to 2000	–
Cc1cn2c(-c3cc(S(=O)(=O)NC45CCC(CO)(C4)C5)ccc3C)cnc2c(N)n1 [Example 262, 3-(8-Amino-6-methylimidazo[1,2-a]pyrazin-3-yl)-N-(4-(hydroxymethyl)bicyclo[2.1.1]hexan-1-yl)-4-methylbenzenesulfonamide]	100 to 500	< 100	< 100	–
Cc1cn2c(-c3cc(S(=O)(=O)NC45CCC(C#N)(C4)C5)ccc3C)cnc2c(N)n1 [Example 263, 3-(8-Amino-6-methylimidazo[1,2-a]pyrazin-3-yl)-N-(4-cyanobicyclo[2.1.1]hexan-1-yl)-4-methylbenzenesulfonamide trifluoroacetate salt]	100 to 500	< 100	100 to 500	–
Cc1cn2c(-c3cc(S(=O)(=O)NC45CC(C#N)(C4)C5)ccc3C)cnc2c(N)n1 [Example 264, 3-(8-Amino-6-methylimidazo[1,2-a]pyrazin-3-yl)-N-(3-cyanobicyclo[1.1.1]pentan-1-yl)-4-methylbenzenesulfonamide trifluoroacetate salt]	100 to 500	< 100	100 to 500	–
Cc1nc(N)c2ncc(-c3cc(S(=O)(=O)NC45CCC(C#N)(C4)C5)ccc3C)n2n1 [Example 265, 3-(4-Amino-2-methylimidazo[1,2-f][1,2,4]triazin-7-yl)-N-(4-cyanobicyclo[2.1.1]hexan-1-yl)-4-methylbenzenesulfonamide trifluoroacetate salt]	–	< 100	< 100	< 100
Cc1nc(N)c2ncc(-c3cc(S(=O)(=O)NC45CCC(CO)(C4)C5)ccc3C)n2n1 [Example 268, 3-(4-Amino-2-methylimidazo[1,2-f][1,2,4]triazin-7-yl)-N-(4-(hydroxymethyl)bicyclo[2.1.1]hexan-1-yl)-4-methylbenzenesulfonamide trifluoroacetate salt]	–	< 100	100 to 500	100 to 500
Cc1nc(N)c2ncc(-c3cc(S(=O)(=O)NCC4(O)CCC4)ccc3C)n2n1 [Example 269, 3-(4-Amino-2-methylimidazo[1,2-f][1,2,4]triazin-7-yl)-N-((1-hydroxycyclobutyl)methyl)-4-methylbenzenesulfonamide trifluoroacetate salt]	–	< 100	100 to 500	100 to 500
Cc1nc(N)c2ncc(-c3cc(S(=O)(=O)NC45CC(C#N)(C4)C5)ccc3C)n2n1 [Example 270, 3-(4-Amino-2-methylimidazo[1,2-f][1,2,4]triazin-7-yl)-N-(3-cyanobicyclo[1.1.1]pentan-1-yl)-4-methylbenzenesulfonamide trifluoroacetate salt]	–	< 100	100 to 500	< 100
Cc1nc(N)c2ncc(-c3cc(S(=O)(=O)N[C@H]4CC[C@](C)(O)CC4)ccc3C)n2n1 [Example 271, 3-(4-amino-2-methylimidazo[1,2-f][1,2,4]triazin-7-yl)-N-((1r,4r)-4-hydroxy-4-methylcyclohexyl)-4-methylbenzenesulfonamide trifluoroacetate salt]	–	< 100	100 to 500	< 100
Cc1nc(N)c2ncc(-c3cc(S(=O)(=O)N[C@H]4C[C@H](C#N)C4)ccc3C)n2n1 [Example 272, 3-(4-amino-2-methylimidazo[1,2-f][1,2,4]triazin-7-yl)-N-((1r,3r)-3-cyanocyclobutyl)-4-methylbenzenesulfonamide trifluoroacetate salt]	–	< 100	100 to 500	100 to 500
Cc1nc(N)c2ncc(-c3cc(S(=O)(=O)NCC(C)(C)O)ccc3C)n2n1 [Example 273, 3-(4-amino-2-methylimidazo[1,2-f][1,2,4]triazin-7-yl)-N-(2-hydroxy-2-methylpropyl)-4-methylbenzenesulfonamide trifluoroacetate salt]	–	< 100	500 to 2000	100 to 500
Cc1ccc(S(=O)(=O)NC23CC(CO)(C2)C3)cc1-c1cnc2c(N)nc(C(F)(F)F)cn12 [Example 274, 3-(8-Amino-6-(trifluoromethyl)imidazo[1,2-a]pyrazin-3-yl)-N-(3-(hydroxymethyl)bicyclo[1.1.1]pentan-1-yl)-4-methylbenzenesulfonamide trifluoroacetate salt]	< 100	< 100	100 to 500	–
